In patent publication US20240238281A1, “PIPERAZINE DERIVATIVES AND APPLICATION THEREOF” (priority 2021, published 2024) one finds EC50 data, which are given here for 18 compounds.

Structures can show the parent of a compound that is named as a salt. Where two headings read alike, the source gives them in different places. Where only a bound is given, the exact number is not on record here.

Holding throughout (format): cell-based
The target in assay [1] is T1, MC3R (Homo sapiens, UniProt P41968).
T1 construct: expressed in transfected cells
The experiment in a line: In vitro activity of MCR receptors, intracellular cAMP signal (HEK293T/MCR cell line), MC3R. The procedure:
(§1) Test purpose: to evaluate the agonistic effect of the compound on MCRs by detecting intracellular cAMP signal changes.
(§2) Cells were resuspended with 1×PBS+500 μM IBMX. 10 μL of the cell suspension was added into a 384-well plate to be tested, and the cell concentration was adjusted to 1×10^4 cells per well for later use. A pre-prepared solution of the compound to be tested was added, and dimethyl sulfoxide of the same volume was added to blank control wells. The test plate was centrifuged at 300 rpm for 1 minute, incubated at 37° C. for 30 minutes, and added with 5 μL of cAMP-d2 and 5 μL of a CAMP-cry antibody detection reagent. The test plate was centrifuged at 300 rpm for 1 minute, and incubated at room temperature for 60 minutes.

Assay [2] deals with T2, MC4R (Homo sapiens, UniProt P32245).
T2 construct: expressed in transfected cells
The assay is described as follows: In vitro activity of MCR receptors, intracellular cAMP signal (HEK293T/MCR cell line), MC4R. The procedure:
as §1
as §2, with “minutes. The test plate was placed in the Envision multifunctional microplate reader for reading, with a detection wavelength of 665/615 nm.” for “minutes.”

In assay [3] the target is T3, MC1R (Homo sapiens, UniProt Q01726).
T3 construct: expressed in transfected cells
The assay is described as follows: In vitro activity of MCR receptors, intracellular cAMP signal (HEK293T/MCR cell line), MC1R. The procedure: as §1, §2

The target in assay [4] is T4, MC5R (Homo sapiens, UniProt P33032).
T4 construct: expressed in transfected cells
The experiment in a line: In vitro activity of MCR receptors, intracellular cAMP signal (HEK293T/MCR cell line), MC5R. The procedure: as §1
as §2, with “minutes. The test plate was placed in the Envision multifunctional microplate reader for reading, with a detection wavelength of 665/615 nm.” for “minutes.”

[5] abbreviates: cAMP, HEK293T/MCR cell line, read-out: MC4R EC50.
[6] abbreviates: cAMP, HEK293T/MCR cell line, read-out: MC1R EC50.
The mark [7] stands for this setting: cAMP, HEK293T/MCR cell line, read-out: MC5R EC50.
[8] abbreviates: cAMP, HEK293T/MCR cell line, read-out: MC3R EC50.

T1 sequence (P41968 whole entry): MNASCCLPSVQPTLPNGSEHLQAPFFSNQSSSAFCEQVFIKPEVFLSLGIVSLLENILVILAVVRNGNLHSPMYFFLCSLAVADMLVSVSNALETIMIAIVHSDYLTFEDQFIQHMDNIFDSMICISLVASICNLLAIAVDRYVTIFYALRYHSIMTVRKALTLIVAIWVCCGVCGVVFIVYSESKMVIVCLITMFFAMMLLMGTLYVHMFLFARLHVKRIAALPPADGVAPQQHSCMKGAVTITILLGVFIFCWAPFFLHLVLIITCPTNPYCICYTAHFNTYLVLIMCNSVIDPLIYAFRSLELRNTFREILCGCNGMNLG
T4 sequence (P33032 whole entry): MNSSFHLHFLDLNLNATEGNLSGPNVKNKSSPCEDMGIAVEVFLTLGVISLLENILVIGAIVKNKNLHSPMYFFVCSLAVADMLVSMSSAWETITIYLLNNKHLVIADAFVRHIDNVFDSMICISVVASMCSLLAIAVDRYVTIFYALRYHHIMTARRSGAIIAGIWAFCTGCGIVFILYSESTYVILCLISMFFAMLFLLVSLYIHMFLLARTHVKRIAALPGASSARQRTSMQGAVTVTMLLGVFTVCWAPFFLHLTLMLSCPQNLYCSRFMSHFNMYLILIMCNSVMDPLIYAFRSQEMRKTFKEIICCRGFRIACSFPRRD
T3 sequence (Q01726 whole entry): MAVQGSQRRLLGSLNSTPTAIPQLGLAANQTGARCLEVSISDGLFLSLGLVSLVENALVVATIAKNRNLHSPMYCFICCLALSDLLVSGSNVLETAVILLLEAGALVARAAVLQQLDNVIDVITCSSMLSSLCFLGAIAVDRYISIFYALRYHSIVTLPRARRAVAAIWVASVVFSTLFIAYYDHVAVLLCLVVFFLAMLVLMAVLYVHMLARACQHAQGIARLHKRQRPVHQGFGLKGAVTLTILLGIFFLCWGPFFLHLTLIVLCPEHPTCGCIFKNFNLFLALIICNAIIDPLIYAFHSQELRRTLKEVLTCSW
T2 sequence (P32245 whole entry): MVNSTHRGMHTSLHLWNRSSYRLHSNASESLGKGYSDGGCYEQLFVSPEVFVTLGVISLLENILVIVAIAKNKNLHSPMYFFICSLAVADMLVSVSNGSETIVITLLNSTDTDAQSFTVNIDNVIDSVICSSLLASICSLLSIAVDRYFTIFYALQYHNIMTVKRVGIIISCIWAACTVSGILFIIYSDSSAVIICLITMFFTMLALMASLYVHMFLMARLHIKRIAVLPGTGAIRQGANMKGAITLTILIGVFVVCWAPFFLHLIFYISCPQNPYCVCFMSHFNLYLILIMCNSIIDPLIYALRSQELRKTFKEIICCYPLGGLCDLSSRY

In the case of `C[C@@H]1CN(C(=O)C2CN(C3CCOC(C)(C)C3)CC2c2ccc(F)cc2F)C[C@H](C)N1c1ccc(F)cc1` (single isomer, unassigned) [Compound 21b], the EC50 in assay [1] was 268 nM; in assay [2] (setting [5]) it was 5.3 nM; in assay [3] (setting [6]) it was 492 nM; in assay [4] (setting [7]), greater than 10000 nM.
For the compound `CC1CC(N2CC(C(=O)N3C[C@@H](C)N(c4ccc(F)cc4)[C@@H](C)C3)C(c3ccc(F)cc3F)C2)CCO1` (single isomer, unassigned) [Compound 22a], the concentration for a half-maximal effect (EC50) is 265 nM in assay [1], 0.03 nM in assay [2] (setting [5]), 790 nM in assay [3] (setting [6]) and greater than 10000 nM in assay [4] (setting [7]).
The corresponding values for `C[C@@H]1CN(C(=O)C2CN(C3CCOC3)CC2c2ccc(F)cc2F)C[C@H](C)N1c1ccc(F)cc1` (single isomer, unassigned) [Compound 20a] are 3130 nM, 26 nM, 2010 nM and greater than 10000 nM.
In the case of `C[C@@H]1CN(C(=O)C2CN([C@H]3CCO[C@@H](C)C3)C[C@H]2c2ccc(F)cc2F)C[C@H](C)N1c1ccc(F)cc1` (stereo partly drawn) [Compound 22d], the EC50 in assay [1] is 696 nM; in assay [2] (setting [5]), 1.9 nM; in assay [3] (setting [6]) it was 106 nM; in assay [4] (setting [7]) it was greater than 10000 nM.
The corresponding values for `C[C@@H]1CN(C(=O)[C@@H]2CN(C3CCOCC3)C[C@H]2c2ccc(F)cc2F)C[C@H](C)N1c1ccc(F)c(F)c1` [Compound 14] are 672 nM, 10 nM, 575 nM and 919 nM.
`C[C@@H]1CN(C(=O)[C@@H]2CN(C(C)(C)C)C[C@H]2c2ccc(F)cc2F)C[C@H](C)N1c1ccccc1` [Hydrochloride salt of compound 6]: the concentration giving a half-maximal response (EC50) in assay [1] was determined as 2030 nM; in assay [2] (setting [5]), 24 nM; in assay [3] (setting [6]), 80 nM; in assay [4] (setting [7]), 1150 nM.
Take `C[C@@H]1CN(C(=O)[C@@H]2CN(C(C)(C)C)C[C@H]2c2ccc(F)cc2F)C[C@H](C)N1c1ccccn1` [Compound 1]: the EC50 in assay [1] (setting [8]) was greater than 10000 nM; in assay [2], 148 nM; in assay [3] it was 2330 nM; in assay [4] it was greater than 10000 nM.
Turning to `C[C@@H]1CN(C(=O)C2CN(C(C)(C)C)CC2c2ccc(F)cc2F)C[C@H](C)N1c1ccc(C(F)(F)F)cc1` (single isomer, unassigned) [Compound 5], the EC50 in assay [1] (setting [8]) is 3500 nM; in assay [2] it was 35 nM; in assay [3], 882 nM; in assay [4] it was greater than 10000 nM.
The corresponding values for `C[C@@H]1CN(C(=O)C2CN(C3CCOCC3)CC2c2ccc(Cl)cc2)C[C@H](C)N1c1ccc(F)cc1` (single isomer, unassigned) [Compound 16] are 254 nM, 6 nM, 167 nM and 1170 nM.
For `C[C@@H]1CN(C(=O)[C@@H]2CN(C3CCOCC3)C[C@H]2c2ccc(F)cc2F)C[C@H](C)N1c1ccc(Cl)cc1` [Compound 15], the EC50 in assay [1] is 574 nM; in assay [2] (setting [5]), 3 nM; in assay [3] it was 580 nM; in assay [4] (setting [7]), greater than 10000 nM.
Take `CCC(C)(C)N1CC(C(=O)N2C[C@@H](C)N(c3ccc(F)cc3)[C@@H](C)C2)[C@H](c2ccc(F)cc2F)C1` (stereo partly drawn) [Compound 23]: the EC50 in assay [1] stood at 316 nM; in assay [2] (setting [5]), 4 nM; in assay [3] (setting [6]) it was 58 nM; in assay [4] (setting [7]) it was 1950 nM.
For `C[C@@H]1CN(C(=O)C2CN(C(C)(C)C)CC2c2ccc(F)cc2F)C[C@H](C)N1c1ccc(F)cc1` (single isomer, unassigned) [Compound 3], the EC50 is 2400 nM in assay [1], 30 nM in assay [2], 300 nM in assay [3] and greater than 10000 nM in assay [4].
On to `C[C@@H]1CN(C(=O)C2CN(c3ccc(C#N)cn3)CC2c2ccc(F)cc2F)C[C@H](C)N1c1ccc(F)cc1` (single isomer, unassigned) [Compound 12], for which the concentration giving a half-maximal response (EC50) in assay [1] (setting [8]) was 5 nM; in assay [2], 0.2 nM; in assay [3], 234 nM; in assay [4], 740 nM.
The corresponding values for `C[C@@H]1CN(C(=O)C2CN(c3cccnn3)CC2c2ccc(F)cc2F)C[C@H](C)N1c1ccc(F)cc1` (single isomer, unassigned) [Compound 11] are 26 nM, 0.4 nM, 82 nM and 2130 nM.
As to `C[C@@H]1CN(C(=O)[C@@H]2CN(C3CCC3)C[C@H]2c2ccc(F)cc2F)C[C@H](C)N1c1ccc(F)cc1` [Compound 17], the EC50 turned out to be 1100 nM in assay [1], 6.7 nM in assay [2] (setting [5]), 55 nM in assay [3] (setting [6]) and 8150 nM in assay [4] (setting [7]).
Take `C[C@@H]1CN(C(=O)[C@@H]2CN(C3CCCCC3)C[C@H]2c2ccc(F)cc2F)C[C@H](C)N1c1ccc(F)cc1` [Compound 18]: the EC50 in assay [1] turned out to be 201 nM; in assay [2] (setting [5]) it was 4 nM; in assay [3] (setting [6]) it was 29 nM; in assay [4] (setting [7]), 1370 nM.
With `C[C@@H]1CN(C(=O)C2CN(c3ccccc3)CC2c2ccc(F)cc2F)C[C@H](C)N1c1ccc(F)cc1` (single isomer, unassigned) [Compound 13], the EC50 in assay [1] (setting [8]) is 3300 nM; in assay [2] it was 50 nM; in assay [3], greater than 10000 nM; in assay [4] it was greater than 10000 nM.
Consider `C[C@@H]1CN(C(=O)C2CN(C(C)(C)C)CC2c2ccc(Cl)cc2)C[C@H](C)N1c1ccc(F)cc1` (single isomer, unassigned) [Compound 9], for which the EC50 in assay [1] (setting [8]) was 1760 nM; in assay [2] it was 16 nM; in assay [3], 45 nM; in assay [4], 402 nM.
